Consider five compounds from US8003602B2 (priority 2006, dated 2011).

For orientation: MIC means the lowest concentration that inhibits growth of the organism.

One assay relates to E. faecium (R-2). The format is cell-based, Enterococcus faecium. As to conditions: E. faecium R-2 (VRE). The source says: (§1) The in-vitro potency was established by minimum inhibitory concentration (MIC) determinations of the compound PM181104 against bacterial strains, by using the Macro-broth dilution method as per National Committee for Clinical Laboratory Standards (2000) guidelines [Journal of Anti-microbial Chemotherapy, 2002, 50, 125-128 (Cross Reference 8: Methods for Dilution Antimicrobial Susceptibility Tests for Bacteria that Grow Aerobically-Fifth Edition: Approved Standard M7-A5. NCCLS, Wayne, Pa., USA)]. Unless stated otherwise, Mueller-Hinton broth was used as nutrient medium for the assay. Linezolid (manufactured by Glenmark Pharma Ltd; Batch no: K2005028) was used as known standard in all in-vitro experiments. For preparation of the stock solution the compound PM181104 was dissolved in chloroform (5% of the total required volume) and diluted using methanol (95% of the total required volume).

Assay [1] relates to S. aureus E-710. Kind of assay: Lung infection model. The format is in vivo, Balb/C mice. An excerpt: (§2) The in-vivo potency was established by protection dose (PD) determinations of the compound PM181104 for its antibiotic activity in three animal models using either male or female Balb/C mice.
(§3) The models used were the general purpose efficacy testing models and organ/tissue specific efficacy testing models. The general purpose efficacy testing models used were systemic infection model (septicemia), and localized infection model (neutropenic thigh model). The Organ/Tissue specific infection models used for efficacy testing were kidney, lung infection, and skin abscess model.
Balb/C mice were rendered neutropenic by intraperitoneally administering 200 mg/kg cyclophosphamide four days and two days prior to infection. On the day of infection, the mice were anesthetized and infected with S. aureus E-710 log-phase culture suspension having bacterial density of approximately 10^6 to 10^7 cfu/ml. 24 and 36 hours post infection the first and second respective dose of drug was administered intravenously. 48 hours post infection, the animals were humanely euthanized and their lungs were aseptically collected to determine the viable count of bacteria. In this model, PM181104 was tested at 5 mg/kg dose prepared in cremophor-ethanol formulation as described in example 14. Two standard antibiotics viz. Linezolid (80 mg/kg single dose at 24 hours post infection) and Vancomycin (110 mg/kg, two doses at 24 and 48 hours post infection) were used as positive controls.

Assay [2] deals with methicillin resistant Staphylococcus aureus E710 (MRSA). Kind of assay: Systemic infection model (septicemia). The format is in vivo, Balb/C mice. As to conditions: mice infected intraperitoneally with MRSA E710, administered intravenously immediately after infection.
Source text: as §2, §3
The animals were infected intraperitoneally with ˜10^8 to 10^9 cfu of an overnight grown culture of methicillin resistant Staphylococcus aureus E710 (MRSA), suspended in normal saline (0.85% sodium chloride). PM181104 solution was prepared in cremophor-ethanol formulation as described in example 14. The solution was administered intravenously at 5 mg, 2.5 mg and 1.25 mg/kg doses, immediately after infection. Each experimental group consisted of ten animals.

The subject of assay [3] is methicillin resistant S. aureus E710 (MRSA). The format is in vivo, Balb/C mice. Conditions: Linezolid at 50 mg/kg dose.
Source text: as §2, §3
Balb/C mice were infected subcutaneously with approximately 10^8 cfu of an overnight grown culture of methicillin resistant S. aureus E710 (MRSA). The bacteria were suspended in 1:1 mixture of 2% cytodex beads in normal saline (0.85% sodium chloride). PM181104 was prepared in cremophor-ethanol formulation as described in example 14. The solution was administered intravenously at 2.5 mg, 5 mg and 10 mg/kg doses, two hours post infection. Each experimental group consisted of six animals. Following abscess formation the animals were sacrificed and abscess harvested to determine the viable counts. […] Linezolid (manufactured by Glenmark Pharma Ltd; Batch no: K2005028) at 50 mg/kg dose.

The test system of assay [4] is Enterococcus faecium ATCC 47077. Kind of assay: Kidney infection model. The format is in vivo, Balb/C mice.
Source text: as §2, §3
0.2 ml of 2% λ Carrageenan was administered intravenously to Balb/C mice 7 days prior to infection. Overnight grown log phase culture of Enterococcus faecium ATCC 47077 adjusted to approximately 10^9 cfu/ml, was injected intravenously to the mice at a volume of 0.2 ml. PM181104 solution, prepared in cremophor-ethanol formulation as described in example 14, was administered intravenously to the mice at 4 hours, 24 hours and 48 hours post-infection. At 72 hours post infection, the animals were sacrificed and kidneys were harvested to determine the bacterial load. […] Linezolid (manufactured by Glenmark Pharma Ltd; Batch no: K2005028) at 25 mg/kg and Vancomycin hydrochloride (manufactured by HiMedia; Catalogue no: RM217-500 mg; Lot no: 06-0350) at 150 mg/kg dose.

Assay [5] relates to S. aureus E-710. Nature of the assay: Neutropenic thigh model. The assay is classed as in vivo, Balb/C mice. As to conditions: Linezolid at 25 mg/kg dose.
Source text: as §2, §3
Each experimental group consisted of six animals. PM181104 was prepared in cremophor-ethanol formulation as described in example 14.

The next assay has as its system E. faecium ATCC 51559. The assay is classed as cell-based, Enterococcus faecium.
Source text: as §1

The subject of a further assay is S. aureus (E710). Kind of assay: MIC, Macro-broth dilution method. The format is cell-based, Staphylococcus aureus. As to conditions: S. aureus MRSA E710.
Source text: as §1
On the technique in general: Dilution methods test growth across graded concentrations, often in twofold steps.

In the next assay the test system is E. faecalis ATCC 51575. The assay is classed as cell-based.
Source text: as §1

Another assay deals with E. faecalis, ATCC 51299. The format is cell-based.
Source text: as §1

In assay [6] the test system is Staphylococcus aureus subsp. aureus ATCC 33591. The format is cell-based. As to conditions: S. aureus MRSA ATCC 33591.
Source text: as §1

Another assay relates to E. faecalis ATCC BAA 472. Kind of assay: MIC, Macro-broth dilution method. The assay is classed as cell-based.
Source text: as §1

In brackets after ≈: the same amount, converted by molar mass. Structures can show the parent of a compound that is named as a salt.

Regarding `C=C(NC(=O)C(=C)NC(=O)C1CCCN1C(=O)c1nc(-c2ccc(-c3nc(C(=O)NC(=C)C(=O)NC(C)C(N)=O)cs3)c(-c3csc(C4Cc5nc(cs5)C(=O)NC(Cc5ccccc5)C5=NC(CS5)C(=O)NC(Cc5ccc(OC(=O)CCC)cc5)C(=O)N5CCCC5c5nc(cs5)C(=O)N4)n3)n2)oc1C)C(N)=O` (stereo not shown) [Butyric Acid Ester Derivative of PM181104], in the assay on E. faecium (R-2), the minimum inhibitory concentration (MIC) turned out to be 2.5 µg/mL (≈ 1.58 µM).

As to `CC(=O)NC[C@H]1CN(c2ccc(N3CCOCC3)c(F)c2)C(=O)O1` [Linezolid, reference compound], the “activity profile in lung infection, comparison with PM181104” value in the assay on S. aureus E-710 [1] (Linezolid 80 mg/kg single dose at 24 hours post infection) was “comparable”. Further, the PD100 in assay [2] was found to be 25 mg/kg. In assay [3], the “decrease in bacterial count in abscess, comparison with PM181104” value is recorded as “comparable”. In addition, the “decrease in bacterial count in kidneys, comparison with PM181104” value in assay [4] (Linezolid at 25 mg/kg) is reported as “comparable”. Further, the “decrease in viable counts in thigh tissue, comparison with PM181104” value in the assay with S. aureus E-710 [5] is recorded as “comparable”.

As for `C=C(NC(=O)C(=C)NC(=O)C1CCCN1C(=O)c1nc(-c2ccc(-c3nc(C(=O)NC(=C)C(=O)NC(C)C(N)=O)cs3)c(-c3csc(C4Cc5nc(cs5)C(=O)NC(Cc5ccccc5)C5=NC(CS5)C(=O)NC(Cc5ccc(OC(=O)c6cccnc6)cc5)C(=O)N5CCCC5c5nc(cs5)C(=O)N4)n3)n2)oc1C)C(N)=O` (stereo not shown) [Nicotinic Acid Ester Derivative of PM181104], the minimum inhibitory concentration (MIC) against E. faecium (R-2) was 0.312 µg/mL (≈ 0.192 µM); in the assay on E. faecium ATCC 51559 it was 0.156 µg/mL (≈ 0.0962 µM); in the assay with S. aureus (E710), above 10 µg/mL; against E. faecalis ATCC 51575 it was 0.312 µg/mL (≈ 0.192 µM); with E. faecalis, ATCC 51299, 0.312 µg/mL (≈ 0.192 µM); in assay [6] it was above 10 µg/mL. In addition, the MIC in the assay with E. faecalis ATCC BAA 472 stood at 0.312 µg/mL (≈ 0.192 µM).

In the assay with E. faecium (R-2), `C=C(NC(=O)C(=C)NC(=O)C1CCCN1C(=O)c1nc(-c2ccc(-c3nc(C(=O)NC(=C)C(=O)NC(C)C(N)=O)cs3)c(-c3csc(C4Cc5nc(cs5)C(=O)NC(Cc5ccccc5)C5=NC(CS5)C(=O)NC(Cc5ccc(OC(=O)CCCCCCCCCCCCCCCCC)cc5)C(=O)N5CCCC5c5nc(cs5)C(=O)N4)n3)n2)oc1C)C(N)=O` (stereo not shown) [Stearic Acid Ester Derivative of PM181104] yielded a minimum inhibitory concentration (MIC) of 1.25 µg/mL (≈ 0.701 µM).

With `CN[C@H](CC(C)C)C(=O)N[C@H]1C(=O)N[C@@H](CC(N)=O)C(=O)N[C@H]2C(=O)N[C@H]3C(=O)N[C@H](C(=O)N[C@H](C(=O)O)c4cc(O)cc(O)c4-c4cc3ccc4O)[C@H](O)c3ccc(c(Cl)c3)Oc3cc2cc(c3O[C@@H]2O[C@H](CO)[C@@H](O)[C@H](O)[C@H]2O[C@H]2C[C@](C)(N)[C@H](O)[C@H](C)O2)Oc2ccc(cc2Cl)[C@H]1O` [Vancomycin hydrochloride, reference compound], the “activity profile in lung infection” value with S. aureus E-710 [1] (Vancomycin 110 mg/kg, two doses at 24 and 48 hours post infection) was “bactericidal profile”. Moreover, the “decrease in bacterial count in kidneys, comparison with PM181104” value in [4] (Vancomycin hydrochloride at 150 mg/kg dose) is “comparable”.
